In PMC6778934, “^99mTc-Labeled LyP-1 for SPECT Imaging of Triple Negative Breast Cancer” (Contrast Media & Molecular Imaging, 2019):

Test system: 4T1 cells
Assay type: cell-based, murine
Description: 4T1 murine breast carcinoma cells were purchased from American Type Culture Collection (Manassas, VA, USA) and maintained in RPMI-1640 supplemented with 10% fetal bovine serum (FBS, Gibco, Grand Island, NY, USA). To produce breast cancer models, 4-week-old female BALB/c nude mice were purchased from the Shanghai Laboratory Animal Center at the Chinese Academy of Sciences (Shanghai, China) and subcutaneously injected in the left lateral thigh with 1 × 10^6 tumor cells suspended in 100 μL of PBS. All animal experiments were performed according to protocols established by the Ethics Committee of Shanghai General Hospital. To assess potential cytotoxic effects of LyP-1 or ARAL, cell proliferation assays were conducted with CCK-8 (Dojindo Technologies, Kumamoto, Japan). 4T1 cells (1 × 10^4 per well) were plated on 96-well plates in the RPMI-1640 medium with 10% FBS. After 24 h, the medium was replaced by 100 μL of fresh containing different concentrations of LyP-1 or ARAL (0.1, 1, 5, 10, 20, or 50 μM) for another 24 h. Then, 10 μL CCK-8 was added for 2 h. Absorbance was measured at 450 nm using a Varioskan Flash multimode microplate reader (Thermo Fisher Scientific, Waltham, MA, USA).

## C[C@@H](O)[C@@H]1NC(=O)[C@H](CCCNC(=N)N)NC(=O)[C@H](CCCCN)NC(=O)[C@H](CC(N)=O)NC(=O)CNC(=O)[C@@H](N)CSSC[C@@H](C(=O)O)NC(=O)CNC(=O)[C@H](CCCNC(=N)N)NC1=O [LyP-1]
  cell viability compared with that for 0.1–10 μM: slightly but not significantly lower
